Test results: patent US12685756B2, “Methods of treating disease with Terlipressin” (BIOVIE INC., priority 2022, dated 2026)
Positions of bridges follow the written chain, without caps; N, C: chain ends. Residues, ends and D or L forms follow the SMILES beside them.

Tests used:
[1] = in vivo; cited from earlier work
[2] = in vivo; cited from earlier work; remark: listed apart in the source
[3] = human, in vivo; cited from earlier work
[4] = administered acutely as a single bolus dose; cited from earlier work
[5] = ongoing clinical trial of terlipressin administered as a continuous infusion in patients with cirrhosis and refractory ascites (serum sodium, hyponatremia); conditions: human, in vivo
Procedure: The following clinical observations were made in an ongoing clinical trial evaluating the safety and efficacy of terlipressin, administered as a continuous infusion, in patients with cirrhosis and refractory ascites. In FIGS. 1-4, “D” stands for “Day” and the notation “Dn” where n is an integer refers to the number of days after the baseline sodium level was measured. The notation “D+N” where N is an integer refers to the number of days after administration of terlipressin was stopped.
Patient #1, a patient with cirrhosis due to NASH and recurrent ascites that was not responding to treatment with the diuretic furosemide initiated infusion with terlipressin (3 mg/day) on Day 1. Terlipressin dose (mg/day), furosemide daily dose, and serum sodium levels of the Patient #1 are recorded in FIG. 1. After 6 days of treatment with terlipressin at a dose of 3 mg/day the dose of terlipressin was escalated to 4 mg/day as per protocol. A modest reduction in serum sodium of 3 mmol/L from baseline was noted before the dose increase. After 7 days of treatment with 4 mg/day serum sodium decreased an additional 8 mmol/L so that there was a total reduction of 11 mmol/L in the 13 days of treatment versus baseline (128 vs 139 mmol/L). […] Terlipressin infusion was discontinued.
Patient #2, a person with alcoholic cirrhosis and recurrent ascites who could not be treated with diuretics began treatment with terlipressin at a dose of 3 mg/day. The daily terlipressin dose and serum sodium levels of the Patient #2 are recorded in FIG. 2.
Patient #3, a person with cirrhosis due to NASH, with uncontrolled ascites despite ongoing treatment with the diuretics furosemide and spironolactone, initiated treatment with terlipressin administered as a continuous intravenous infusion at a dose of 3 mg/day. Terlipressin dose (mg/day), furosemide daily dose, and serum sodium levels of the Patient #3 are recorded in FIG. 3. […] Though the patient was asymptomatic the patient was directed to go to the Emergency room. […]

[6] = in vivo; cited from earlier work; remark: listed apart in the source
[7] = continuous infusion, outpatient setting, without daily albumin; cited from earlier work
[8] = bolus IV administration, cited from earlier work
[9] = administered over 14 days with daily albumin to HRS patients; cited from earlier work
[10] = human, in vivo; cited from earlier work; remark: listed apart in the source
[11] = set-up: species or system human; conditions: in vivo
Procedure: Patient #4, who was one of 6 patients treated with terlipressin administered as a continuous infusion in our previous Phase 2a trial, was a person with recurrent ascites due to cirrhosis despite taking the […] spironolactone and furosemide. Terlipressin, furosemide, and serum sodium levels of […] are recorded in FIG. 4. According to protocol this patient began treatment with terlipressin at an initial dose of 2 mg/day who was escalated to a dose of 3 mg/day on Day 5. Serum sodium gradually declined over time reaching a reduction of 10 mmol/L on Day 5 at which point the patient stopped taking furosemide. Serum sodium continued to decline and spironolactone was stopped for two days which had no impact on declining serum sodium. Terlipressin infusion was stopped after 9 days of treatment and serum sodium rebounded after 2 days of drug cessation.
Additionally, one patient in our previously conducted Phase 2a trial (n=6) similarly developed asymptomatic hyponatremia in response to terlipressin administration.
In searching for a commonality between the three patients that experienced hyponatremia in response to terlipressin treatment in the current trial it was noted that the three patients were taking daily gabapentin (Patient #1 and 2) or pregabalin (Patient #3) though none of the other 7 patients randomized to treatment with terlipressin were taking either of these medications. Moreover, the one patient out of six who developed hyponatremia in response to terlipressin in the previous Phase 2a trial was also taking gabapentin.

**Q.** For NC(=O)CC[C@@H]1NC(=O)[C@H](Cc2ccccc2)NC(=O)[C@H](Cc2ccc(O)cc2)NC(=O)CCSSC[C@@H](C(=O)N2CCC[C@H]2C(=O)N[C@H](CCCN=C(N)N)C(=O)NCC(N)=O)NC(=O)[C@H](CC(N)=O)NC1=O [desmopressin], which “incidence of desmopressin-induced hyponatremia” value [1] is on record?
**A.** 7.6%

**Q.** With NCC1(CC(=O)O)CCCCC1 [gabapentin] as the molecule, how does the “risk of hyponatremia compared with other anti-epilepsy drugs” value [2] read?
**A.** lowest risk of hyponatremia among anti-epilepsy drugs

**Q.** Which results are given for NCCCC[C@H](NC(=O)[C@@H]1CCCN1C(=O)[C@@H]1CSSC[C@H](NC(=O)CNC(=O)CNC(=O)CN)C(=O)N[C@@H](Cc2ccc(O)cc2)C(=O)N[C@@H](Cc2ccccc2)C(=O)N[C@@H](CCC(N)=O)C(=O)N[C@@H](CC(N)=O)C(=O)N1)C(=O)NCC(N)=O [terlipressin] (H-GGGCYFQNCPKG-NH2; disulfide 4-9)?
**A.** patients with severe hyponatremia (reduction in serum sodium of >10 mmol/L) [3]: more than 12%; patients with severe hyponatremia who experience neurological manifestations [3]: at least 30%; antidiuretic effect [4]: mediates antidiuretic effects; additional decrease in serum sodium [5]: 4 mmol/L; relatedness of hyponatremia to treatment [5]: considered related to terlipressin; total reduction in serum sodium versus baseline [5]: 11 mmol/L; incidence of hyponatremia [6]: < 5%; effect on renal function and ascites [7]: improve renal function and reduce ascites; effect on serum sodium concentrations [7]: improve serum sodium concentrations; hours in which V2 mediated antidiuretic effects can predominate ([8]; between bolus doses): 4 to 6 h; duration of V1-mediated pharmacodynamic effects [8]: 3 to 4 h; effect on low serum sodium [9]: can even correct low serum sodium; patients who experienced hyponatremia defined as ≥5 mmol decrease in serum sodium [10]: 67%; patients who developed asymptomatic hyponatremia in response to terlipressin [11]: one patient; relatedness of severe hyponatremia to treatment [11]: considered related to terlipressin treatment; serum sodium after drug cessation [11]: rebounded; symptoms of severe hyponatremia [11]: asymptomatic
